US9976141B2, “Compositions and methods for inhibiting gene expression of Hif2alpha” (Arrowhead Madison Inc., priority 2015, dated 2018)
“And” between values parts separate entries of the source, which are not always exact repeats. Equal values may be shown once.

Tested on: human (tumor) Hif2α (EPAS1) mRNA
Experiment: Hif2α knockdown in orthotopic RCC tumor bearing mice, single injection of RNAi trigger-delivery polymer conjugate, RT-qPCR (Table 7)
Format: in vivo
Settings: RNAi trigger 50 μg, polymer 064 125 μg; single tail vein injection; relative to isotonic glucose
In short: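 Female athymic nude mice carried orthotopic A498-SEAP ccRCC kidney tumours, used 5–6 weeks after implantation. They received one tail-vein injection of RGD-targeted Hif2α RNAi trigger–polymer conjugate or isotonic glucose. Tumour Hif2α mRNA was measured by TaqMan RT-qPCR normalised to CycA (ΔΔCT) and expressed relative to glucose-treated mice.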

Substance	Relative Expression day 4 (Hif2α mRNA in kidney tumor)
AD02695 (antisense UUUCAUGAAAUCGUUACGUUG; sense ACGUAACGAUUUCAUGAAAT; Hif2alpha RNAi agent antisense strand; modified_base 2,4,6,8,10,14,16,18 /mod_base = “2′-deoxy-2′-fluoro corresponding nucleoside”; modified_base 1,3,5,7,9,11,12,13,15,17,19,20,21 /mod_base = “2′-O-methyl corresponding nucleoside”; modified_base 2,3,20,21 /mod_base = “5′-phosphorothioate corresponding nucleotide”; Hif2alpha RNAi agent sense strand; modified_base 7,9,13 /mod_base = “2′-deoxy-2′-fluoro corresponding nucleoside”; modified_base 1,2,3,4,5,6,8,10,11,12,14,15,16,17,18,19 /mod_base = “2′-O-methyl corresponding nucleoside”; modified_base 20 /mod_base = “3′-3′-linked nucleotide”; modi)	0.123
AD02735 (antisense AUUCAUGAAAUCGUUACGUUG; sense ACGUAACGAUUUCAUGAAUT; Hif2alpha RNAi agent antisense strand; modified_base 2,4,6,8,10,14,16,18 /mod_base = “2′-deoxy-2′-fluoro corresponding nucleoside”; modified_base 1,3,5,7,9,11,12,13,15,17,19,20,21 /mod_base = “2′-O-methyl corresponding nucleoside”; modified_base 2,3,20,21 /mod_base = “5′-phosphorothioate corresponding nucleotide”; Hif2alpha RNAi agent sense strand; modified_base 3,5,7,8,9,13,15,17 /mod_base = “2′-deoxy-2′-fluoro corresponding nucleoside”; modified_base 1,2,4,6,10,11,12,14,16,18,19 /mod_base = “2′-O-methyl corresponding nucleoside”; modified_base 20 /mod_base = “3′-3′-linked nucleotide”; modi)	0.144
AD02857 (antisense UUUCAUGAAAUCGUUACGUUG; sense ACGUAACGAUUUCAUGAAAT; Hif2alpha RNAi agent antisense strand; modified_base 2,4,6,8,10,14 /mod_base = “2′-deoxy-2′-fluoro corresponding nucleoside”; modified_base 1,3,5,7,9,11,12,13,15,16,17,18,19,20,21 /mod_base = “2′-O-methyl corresponding nucleoside”; modified_base 2,3,20,21 /mod_base = “5′-phosphorothioate corresponding nucleotide”; Hif2alpha RNAi agent sense strand; modified_base 7,8,9 /mod_base = “2′-deoxy-2′-fluoro corresponding nucleoside”; modified_base 1,2,3,4,5,6,10,11,12,13,14,15,16,17,18,19 /mod_base = “2′-O-methyl corresponding nucleoside”; modified_base 20 /mod_base = “3′-3′-linked nucleotide”; modi)	0.192
AD02858 (antisense UUUCAUGAAAUCGUUACGUUG; sense ACGUAACGAUUUCAUGAAAT; Hif2alpha RNAi agent antisense strand; modified_base 2,3,4,8,10,14 /mod_base = “2′-deoxy-2′-fluoro corresponding nucleoside”; modified_base 1,5,6,7,9,11,12,13,15,16,17,18,19,20,21 /mod_base = “2′-O-methyl corresponding nucleoside”; modified_base 2,3,20,21 /mod_base = “5′-phosphorothioate corresponding nucleotide”; Hif2alpha RNAi agent sense strand; modified_base 7,8,9 /mod_base = “2′-deoxy-2′-fluoro corresponding nucleoside”; modified_base 1,2,3,4,5,6,10,11,12,13,14,15,16,17,18,19 /mod_base = “2′-O-methyl corresponding nucleoside”; modified_base 20 /mod_base = “3′-3′-linked nucleotide”; modi)	0.192
AD02859 (antisense UUUCAUGAAAUCGUUACGUUG; sense ACGUAACGAUUUCAUGAAAT; Hif2alpha RNAi agent antisense strand; modified_base 2,4,6,8,14 /mod_base = “2′-deoxy-2′-fluoro corresponding nucleoside”; modified_base 1,3,5,7,9,10,11,12,13,15,16,17,18,19,20,21 /mod_base = “2′-O-methyl corresponding nucleoside”; modified_base 2,3,20,21 /mod_base = “5′-phosphorothioate corresponding nucleotide”; Hif2alpha RNAi agent sense strand; modified_base 7,8,9 /mod_base = “2′-deoxy-2′-fluoro corresponding nucleoside”; modified_base 1,2,3,4,5,6,10,11,12,13,14,15,16,17,18,19 /mod_base = “2′-O-methyl corresponding nucleoside”; modified_base 20 /mod_base = “3′-3′-linked nucleotide”; modi)	0.214

Same assay, conditions: RNAi trigger 75 μg, polymer 064 187.5 μg; single tail vein injection; relative to isotonic glucose

Substance	Relative Expression day 4 (Hif2α mRNA in kidney tumor)
AD02693 (antisense UUUCAUGAAAUCGUUACGUUG; sense ACGUAACGAUUUCAUGAAAT; Hif2alpha RNAi agent antisense strand; modified_base 2,4,6,8,10,14,16,18 /mod_base = “2′-deoxy-2′-fluoro corresponding nucleoside”; modified_base 1,3,5,7,9,11,12,13,15,17,19,20,21 /mod_base = “2′-O-methyl corresponding nucleoside”; modified_base 2,3,20,21 /mod_base = “5′-phosphorothioate corresponding nucleotide”; Hif2alpha RNAi agent sense strand; modified_base 5,7,9,13,15,17 /mod_base = “2′-deoxy-2′-fluoro corresponding nucleoside”; modified_base 1,2,3,4,6,8,10,11,12,14,16,18,19 /mod_base = “2′-O-methyl corresponding nucleoside”; modified_base 20 /mod_base = “3′-3′-linked nucleotide”; modi)	0.122
AD02694 (antisense UUUCAUGAAAUCGUUACGUUG; sense ACGUAACGAUUUCAUGAAAT; Hif2alpha RNAi agent antisense strand; modified_base 2,4,6,8,10,14,16,18 /mod_base = “2′-deoxy-2′-fluoro corresponding nucleoside”; modified_base 1,3,5,7,9,11,12,13,15,17,19,20,21 /mod_base = “2′-O-methyl corresponding nucleoside”; modified_base 2,3,20,21 /mod_base = “5′-phosphorothioate corresponding nucleotide”; Hif2alpha RNAi agent sense strand; modified_base 3,7,9,13,17 /mod_base = “2′-deoxy-2′-fluoro corresponding nucleoside”; modified_base 1,2,4,5,6,8,10,11,12,14,15,16,18,19 /mod_base = “2′-O-methyl corresponding nucleoside”; modified_base 20 /mod_base = “3′-3′-linked nucleotide”; modi)	0.099
AD02695 (antisense UUUCAUGAAAUCGUUACGUUG; sense ACGUAACGAUUUCAUGAAAT; Hif2alpha RNAi agent antisense strand; modified_base 2,4,6,8,10,14,16,18 /mod_base = “2′-deoxy-2′-fluoro corresponding nucleoside”; modified_base 1,3,5,7,9,11,12,13,15,17,19,20,21 /mod_base = “2′-O-methyl corresponding nucleoside”; modified_base 2,3,20,21 /mod_base = “5′-phosphorothioate corresponding nucleotide”; Hif2alpha RNAi agent sense strand; modified_base 7,9,13 /mod_base = “2′-deoxy-2′-fluoro corresponding nucleoside”; modified_base 1,2,3,4,5,6,8,10,11,12,14,15,16,17,18,19 /mod_base = “2′-O-methyl corresponding nucleoside”; modified_base 20 /mod_base = “3′-3′-linked nucleotide”; modi)	0.101 and 0.155
AD02733 (antisense UUUCAUGAAAUCGUUACGUUG; sense ACGUAACGAUUUCAUGAAAT; Hif2alpha RNAi agent antisense strand; modified_base 2,4,6,8,10 /mod_base = “2′-deoxy-2′-fluoro corresponding nucleoside”; modified_base 1,3,5,7,9,11,12,13,14,15,16,17,18,19,20,21 /mod_base = “2′-O-methyl corresponding nucleoside”; modified_base 2,3,20,21 /mod_base = “5′-phosphorothioate corresponding nucleotide”; Hif2alpha RNAi agent sense strand; modified_base 7,9 /mod_base = “2′-deoxy-2′-fluoro corresponding nucleoside”; modified_base 1,2,3,4,5,6,8,10,11,12,13,14,15,16,17,18,19 /mod_base = “2′-O-methyl corresponding nucleoside”; modified_base 20 /mod_base = “3′-3′-linked nucleotide”; modi)	0.283
AD02734 (antisense UUUCAUGAAAUCGUUACGUUG; sense ACGUAACGAUUUCAUGAAAT; Hif2alpha RNAi agent antisense strand; modified_base 2,4,6,8 /mod_base = “2′-deoxy-2′-fluoro corresponding nucleoside”; modified_base 1,3,5,7,9,10,11,12,13,14,15,16,17,18,19,20,21 /mod_base = “2′-O-methyl corresponding nucleoside”; modified_base 2,3,20,21 /mod_base = “5′-phosphorothioate corresponding nucleotide”; Hif2alpha RNAi agent sense strand; modified_base 7,9 /mod_base = “2′-deoxy-2′-fluoro corresponding nucleoside”; modified_base 1,2,3,4,5,6,8,10,11,12,13,14,15,16,17,18,19 /mod_base = “2′-O-methyl corresponding nucleoside”; modified_base 20 /mod_base = “3′-3′-linked nucleotide”; modi)	0.262
